Data on 16 compounds can be found in paper PMC12456999, “Sulfonyl Homoserine Lactones Are Tunable Probes to Inhibit the Quorum Sensing Receptor RhlR and Reduce Swarming Motility in Pseudomonas aeruginosa” (ACS Infectious Diseases, 2025).

A value given as a limit tells only on which side of the number the result lay.

T1 sequence (P54292 whole entry): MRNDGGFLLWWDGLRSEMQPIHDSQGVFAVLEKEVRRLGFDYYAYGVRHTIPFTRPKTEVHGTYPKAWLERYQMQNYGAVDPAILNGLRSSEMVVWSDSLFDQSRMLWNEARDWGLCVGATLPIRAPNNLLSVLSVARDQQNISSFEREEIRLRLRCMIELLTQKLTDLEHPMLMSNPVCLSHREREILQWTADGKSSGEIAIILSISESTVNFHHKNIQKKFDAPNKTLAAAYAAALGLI

The first assay concerns the target T1, RhlR (Pseudomonas aeruginosa, UniProt P54292).
T1 construct: expressed in transfected cells; host or cells: E. coli JLD271 (K-12 ΔlacX74 sdiA271::Cam) carrying pJN105-R2 (RhlR expression) and pSC11-rhlI (rhlI'-lacZ reporter)
Put plainly: E. coli (JLD271) RhlR reporter antagonism assay, in competition with BHL. It counts as cell-based. Conditions: E. coli RhlR reporter; BHL at 10 μM set to 0%, media control set to 100%. As to the method:
To start, the sulfonyl HLs were evaluated for their ability to antagonize RhlR using a previously described E. coli strain (JLD271) harboring a RhlR expression plasmid and a rhlI reporter plasmid. This E. coli reporter produces RhlR, and protein activity in the presence of an added small molecule can be measured via the production of β-galactosidase as quantified via luminescence (see Methods). Compounds were screened in competition against RhlR’s native ligand, BHL (at its EC50 value in this strain, 10 μM), over a range of concentrations to generate antagonism dose–response curves (see Supporting Information) and calculate IC50 values (listed in Table ). A small set of compounds was also screened for RhlR agonism in the E. coli reporter; the agonism assay format was identical to the antagonism assay, except no BHL was added.
RhlR activity in E. coli strain JLD271 (ΔsdiA) was measured via a β-galactosidase reporter (rhI-lacZ) using the Promega Beta-Glo Assay System as previously described. RhlR activity in P. aeruginosa PA14 (ΔrhlIΔlasI) was measured via a GFP reporter (rhlA-gfp). […] See Supporting Information for both reporter protocols.
Supporting Information — Aguirre-Figueroa et al.
E. coli and P. aeruginosa RhlR reporter assay protocols.
E. coli RhlR reporter assay. RhlR activity in E. coli strain JLD271 (ΔsdiA) was measured via a β-galactosidase reporter using the Promega Beta-Glo® Assay System as previously described.10 A schematic of the reporter plasmids and assay protocol is shown in Scheme S1. Briefly, a single colony of E. coli JLD271 harboring the RhlR expression plasmid pJN105-R and the rhlI-lacZ transcriptional fusion reporter pSC11-R (Table S1) was grown in LB medium with 100 μg/mL ampicillin and 10 μg/mL gentamicin overnight (~16 h). The culture was diluted 1:10 in fresh LB medium and grown to an OD600 = 0.25 (0.23–0.28) (~0.5 h). Arabinose was added to a final concentration of 4 mg/mL to induce the expression of pJN105-R. Aliquots (2 μL) of compound DMSO stock solution or serial dilution were added to the inner wells (i.e., non-periphery rows) of a 96-well microtiter plate. To six inner wells, DMSO alone (vehicle) was added as a negative control. For agonism assays, BHL was added to six inner wells as a positive control (to achieve 1 mM). For antagonism assays, BHL was added to six inner wells as a positive control and to all of the other sample wells except for the vehicle control wells (to achieve 10 μM ). Subculture (198 μL) was then dispensed into each inner well. To the outer (periphery) wells, 200 μL of water were added to maintain humidity during incubation. Plates were then incubated for 4 h (shaking) at 37 °C.
Scheme S1. Schematic of E. coli reporter plasmids and assay. (A) Representation of plasmids used in the heterologous reporter system. (B) General reporter assay workflow. BioRender used in […]
After the incubation period, the OD600 of each well was measured using a plate reader. Cell dilution plates were prepared by transferring 10 μL from the incubated culture plate wells to a fresh 96-well plate and adding 90 μL of 18 MΩ water to each well. Next, 10 μL aliquots of diluted Beta-Glo® reagent (1:2 with 18 MΩ water) were added to each well of a white 384-well microtiter plate, followed by 10 μL of culture from each well of the dilution plate. The 384-well plate was incubated (without shaking; i.e., static) for 30 min at 30 °C. After incubation, luminescence of each well was measured using a plate reader. To determine levels of RhlR activity, raw luminescence was divided by OD600 to correct for growth variation and then normalized to the negative (0%) and positive (100%) control wells.
Dose-response reporter assay data for compounds in the E. coli RhlR reporter.
Dose-response curves for RhlR antagonism by compounds against 10 μM BHL using the E. coli JLD271 RhlR reporter are provided below. Compound names are indicated on the x-axis of each plot.
All assays performed in triplicate as at least three separate biological replicates. […]
Regarding `O=C1OCC[C@@H]1NS(=O)(=O)c1ccc(I)cc1` [Compound 36], the “max. RhlR inhibition (%)” value is on record as 99%.
As to `O=C1OCC[C@@H]1NS(=O)(=O)c1ccc(C(F)(F)F)cc1` [Compound 37], the “max. RhlR inhibition (%)” value is on record as 99%.
As for `O=C1OCC[C@@H]1NS(=O)(=O)Cc1ccc(Cl)c(Cl)c1` [Compound 44, 3,4-di-Cl BnSHL], the “max. RhlR inhibition (%)” value came out at 82%.
Still for that read-out and setting: the same measure for `COc1cccc(S(=O)(=O)N[C@H]2CCOC2=O)c1` [Compound 48]: 88%.
Same read-out and setting: the figure for `O=C1OCC[C@H]1NS(=O)(=O)c1ccc(Cl)c(Cl)c1` [Compound 55, 3,4-di-Cl BSHL] is 99%; for `O=C1OCC[C@@H]1NS(=O)(=O)c1ccc(Cl)c(C(F)(F)F)c1` [Compound 60] it is 90%.
Same read-out and setting: the same measure for `O=C1OCC[C@@H]1NS(=O)(=O)c1ccc(F)c([N+](=O)[O-])c1` [Compound 71, 3-NO2,4-F BSHL]: 62%; for `O=C1OCC[C@@H]1NS(=O)(=O)c1ccc(F)c(C(F)(F)F)c1` [Compound 76]: 84%; for `O=C1OCC[C@@H]1NS(=O)(=O)c1cccc(F)c1` [Compound 88, 3-fluoro BSHL]: 92%.
As to `O=C1OCC[C@@H]1NS(=O)(=O)c1c(Cl)cccc1Cl` [Compound 89, 2,6-di-Cl-BSHL], the “max. RhlR inhibition (%)” value came out at 86%.
In the case of `O=C1OCC[C@@H]1NS(=O)(=O)c1cc(Cl)ccc1Cl` [Compound 90, 2,5-di-Cl BSHL], the “max. RhlR inhibition (%)” value came out at 92%.
On the same count and under the same terms, the same measure for `O=C1OCC[C@@H]1NS(=O)(=O)c1ccc(F)cc1` [Compound 91]: 97%; for `O=C1OCC[C@@H]1NS(=O)(=O)c1ccccc1F` [Compound 92, 2-fluoro-BSHL]: 91%.
The same measure, in the same setting: the figure for `Cc1cccc(S(=O)(=O)N[C@H]2CCOC2=O)c1` [Compound 93] is 95%; for `Cc1ccc(CC(=O)N[C@H]2CCOC2=O)cc1` [Compound C19, 4-Me PHL, reference compound] it is 89%.
In the case of `O=C(Cc1ccc(C(F)(F)F)cc1)N[C@H]1CCOC1=O` [Compound C20, 4-CF3 PHL, reference compound], the “max. RhlR inhibition (%)” value was found to be 93%.

The assay is the same for the next values; noted with them: IC50, E. coli JLD271 RhlR reporter; against 10 μM BHL.
Broadly, the IC50 is the concentration needed to halve the response being measured. `O=C1OCC[C@@H]1NS(=O)(=O)c1ccc(I)cc1` [Compound 36] came in with a 50% inhibitory concentration (IC50) of 295 µM.
Still for that read-out and setting: the same measure for `O=C1OCC[C@@H]1NS(=O)(=O)c1ccc(C(F)(F)F)cc1` [Compound 37]: 333 µM; for `O=C1OCC[C@@H]1NS(=O)(=O)Cc1ccc(Cl)c(Cl)c1` [Compound 44, 3,4-di-Cl BnSHL]: 205 µM; for `COc1cccc(S(=O)(=O)N[C@H]2CCOC2=O)c1` [Compound 48]: 210 µM.
On the same count and under the same terms, the figure for `O=C1OCC[C@H]1NS(=O)(=O)c1ccc(Cl)c(Cl)c1` [Compound 55, 3,4-di-Cl BSHL] is 195 µM; for `O=C1OCC[C@@H]1NS(=O)(=O)c1ccc(Cl)c(C(F)(F)F)c1` [Compound 60] it is 93.1 µM; for `O=C1OCC[C@@H]1NS(=O)(=O)c1ccc(F)c([N+](=O)[O-])c1` [Compound 71, 3-NO2,4-F BSHL] it is 257 µM.
On the same count and under the same terms, the same measure for `O=C1OCC[C@@H]1NS(=O)(=O)c1ccc(F)c(C(F)(F)F)c1` [Compound 76]: 69.4 µM.
`O=C1OCC[C@@H]1NS(=O)(=O)c1cccc(F)c1` [Compound 88, 3-fluoro BSHL] yielded a concentration for half-maximal inhibition (IC50) of 120 µM.
Regarding `O=C1OCC[C@@H]1NS(=O)(=O)c1c(Cl)cccc1Cl` [Compound 89, 2,6-di-Cl-BSHL], the IC50 was greater than 1000 µM.
Compound `O=C1OCC[C@@H]1NS(=O)(=O)c1cc(Cl)ccc1Cl` [Compound 90, 2,5-di-Cl BSHL] gave an IC50 of 1100 µM.
`O=C1OCC[C@@H]1NS(=O)(=O)c1ccc(F)cc1` [Compound 91]: the IC50 came to 301 µM.
As to `O=C1OCC[C@@H]1NS(=O)(=O)c1ccccc1F` [Compound 92, 2-fluoro-BSHL], the half-maximal inhibitory concentration (IC50) was 863 µM.
Compound `Cc1cccc(S(=O)(=O)N[C@H]2CCOC2=O)c1` [Compound 93] had an IC50 of 127 µM.
`Cc1ccc(CC(=O)N[C@H]2CCOC2=O)cc1` [Compound C19, 4-Me PHL, reference compound] gave a 50% inhibitory concentration (IC50) of 5.46 µM.
For `O=C(Cc1ccc(C(F)(F)F)cc1)N[C@H]1CCOC1=O` [Compound C20, 4-CF3 PHL, reference compound], the IC50 stood at 10.3 µM. This IC50 is about 1.9-fold higher than that of the compound before.
